Where a SMILES comes first, the peptide text is derived from it. Bridges are numbered along the chain shown (N, C = ends). Where no end group is shown, it is not given here. [ ]: non-standard residue; d: D form. S5 = C=CCCC[C@](C)(N)C(=O)O; Nle = CCCC[C@H](N)C(=O)O

The assay deals with T1, 5-HT2AR–CB1R heteromers (Homo sapiens, UniProt P28223).
T1 construct: expressed in transfected cells; host or cells: HEK293 (ATCC CRL-1573), transient reverse transfection
T1 sequence (P28223 2-471, one chain of several): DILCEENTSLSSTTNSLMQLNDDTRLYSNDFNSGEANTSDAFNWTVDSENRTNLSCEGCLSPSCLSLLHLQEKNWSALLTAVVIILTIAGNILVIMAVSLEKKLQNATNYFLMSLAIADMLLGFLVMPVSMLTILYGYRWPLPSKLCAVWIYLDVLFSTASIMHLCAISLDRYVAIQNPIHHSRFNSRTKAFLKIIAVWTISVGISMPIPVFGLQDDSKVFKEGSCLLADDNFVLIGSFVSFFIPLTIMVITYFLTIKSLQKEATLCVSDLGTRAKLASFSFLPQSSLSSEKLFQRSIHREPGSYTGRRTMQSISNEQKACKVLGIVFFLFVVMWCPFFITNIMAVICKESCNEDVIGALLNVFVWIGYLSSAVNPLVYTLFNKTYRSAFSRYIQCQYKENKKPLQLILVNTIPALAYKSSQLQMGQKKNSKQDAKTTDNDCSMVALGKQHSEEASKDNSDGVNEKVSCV
Put plainly: NanoBiT BiLC peptide screening assay (LgBiT–CB1R + SmBiT–5-HT2AR). The format is cell-based. Conditions: HEK293 cells transiently expressing LgBiT–CB1R and SmBiT–5-HT2AR, preincubated 1 h with 4 μM peptide, luminescence normalized to vehicle, n ≥ 5. As to the method:
Figure 5. Identification of a small-stapled TM peptide disrupting 5-HT2AR–CB1R heteromers. A, schematic representation of the NanoBiT assay using N-terminally labeled constructs. In B, HEK293 cells transiently expressing the LgBT–CB1R and SmBiT–5-HT2AR complementary pairs were preincubated for 1 h at 37 °C with the indicated peptides (4 μM) or vehicle prior to luminescence recording. Data are mean RLU ± S.E. (error bars) (n ≥ 5) percentage of luminescence normalized to vehicle-treated cells. Statistical significance was evaluated by one-way ANOVA followed by Bonferroni post hoc tests, indicating significant differences over vehicle-treated cells (***, p ≤ 0.001; ****, p ≤ 0.0001) and for peptide 10 over its related peptides (####, p ≤ 0.0001). Peptide 10 potency (C) was evaluated as in A over increasing peptide concentrations (bottom) (n = 3). Alternatively, to assess the kinetics of the peptide 10–driven heteromer disruption (D), prior to the administration of the peptide, the cells were preincubated with substrate, and the luminescence was recorded over the following 30 min. Data are mean RLU ± S.E. (n ≥ 3) percentage of luminescence normalized to vehicle-treated cells.
To assess GPCR protein–protein interactions with the NanoBiT technology, HEK293 cells (50,000 cells/well) were seeded in poly-D-lysine–coated white clear bottom 96-well plates and reverse-transfected (see above) with the plasmids encoding the complementary NanoBiT hemiprotein fragments. For orientation screenings, cells were transfected with two different concentrations (50 and 100 ng/well) of each receptor alone or in combination with the investigated partner (see figure legends) in the presence of empty vector (pcDNA3.1(+)) to normalize the total amount of DNA/well. For studies in the presence of increasing nontagged receptor competitors, 100 ng of each receptor pair (CB1R LgBiT + CB1R SmBiT, 5-HT2AR LgBiT + 5-HT2AR SmBiT, and 5-HT2AR LgBiT + CB1R SmBiT) were co-transfected with increasing concentrations of the different nontagged constructs (from 0 to 300 ng/well), and the total amounts of DNA/well were normalized with empty vector (pcDNA3.1(+)). For the screening of stapled peptides, 50 ng/well of both LgBiT CB1R and SmBiT 5-HT2AR were reverse-transfected as detailed previously. 24 h post- transfection, the cell culture medium was removed, and the cells were starved in FBS-free DMEM for 4 h at 37 °C in a 5% CO2 humidified atmosphere. The cell culture medium was replaced by 100 μl of NanoBiT assay buffer (same as for cAMP measurements), and the plates were pre-equilibrated for 1 h at RT in the dark. When peptide pretreatment was required, peptides were added over this pre-equilibration step, except when studying inhibition kinetics, when the peptides were administered immediately after the baseline luminescence recording. 25 μl/well of a 5× solution of the Nano-Glo® live cell reagent containing the cell-permeable furimazine substrate dissolved in Nano-Glo® LCS dilution buffer were added, and the luminescence was immediately monitored in CLARIOstar® Multimode Plate Reader (BMG Labtech) with no lens (1-s integration time/well for 1 h every minute).
Dose–response curves were fitted using a four-parameter logistic nonlinear regression mode. Peptide stability data were fitted using a nonlinear regression mode for dissociation kinetics. All statistical tests, curve fitting, and graphing were performed using GraphPad Prism 8 (GraphPad Software, La Jolla, CA).
Regarding `CCCC[C@H](NC(=O)[C@]1(C)CCC/C=C\CCC[C@](C)(NC(=O)[C@H](Cc2ccccc2)NC(=O)[C@H](CC(C)C)NC(=O)[C@H](CC(C)C)NC(=O)[C@H](CC(C)C)NC(=O)[C@@H](N)C(C)C)C(=O)N[C@@H](C(C)C)C(=O)N[C@@H](Cc2ccc(O)cc2)C(=O)N[C@@H](C)C(=O)N1)C(=O)N[C@@H](Cc1ccc(O)cc1)C(=O)N[C@H](C(=O)N[C@@H](CC(C)C)C(=O)N[C@@H](Cc1c[nH]c2ccccc12)C(N)=O)[C@@H](C)CC` [Peptide 8] (H-VLLLF[S5]VYA[S5][Nle]YILW-NH2; staple (Z) 6-10), the “effect on NanoBiT luminescence (heteromer disruption)” value (“effect on NanoBiT luminescence” for short) is on record as “not as efficient as compound 10”.

Regarding `C=CCCC[C@](C)(NC(=O)[C@H](Cc1ccc(O)cc1)NC(=O)[C@@H](N)C(C)C)C(=O)N[C@@H](Cc1ccc(O)cc1)C(=O)N[C@@H](CCCC)C(=O)N[C@@](C)(CCCC=C)C(=O)N[C@H](C(=O)N[C@@H](CC(C)C)C(=O)N[C@@H](Cc1c[nH]c2ccccc12)C(N)=O)[C@@H](C)CC` [Peptide 11] (H-VY[S5]Y[Nle][S5]ILW-NH2), the “effect on NanoBiT luminescence” value is “neither the version lacking the TAT amino acid sequence, compound 9, nor the nonstaple, compound 11, peptides induced any change”.

Consider “ETYLMFWIGVTSVLLLFIVYAYMYILWGRKKRRQRRR [TM5-TAT, reference compound]”, for which the “effect on NanoBiT luminescence” value was “decrease in the luminescence readout”.

In the case of “GRKKRRQRRRKTLVLILVVLIICWGPLLAIMVY [TM6-TAT, reference compound]”, the “effect on NanoBiT luminescence” value is reported as “decrease in the luminescence readout”.

The values above are taken from paper PMC6851324, “Design and development of stapled transmembrane peptides that disrupt the activity of G-protein–coupled receptor oligomers” (The Journal of Biological Chemistry, 2019).
